{
  "source": "paper PMC3940307",
  "about": "(ACS medicinal chemistry letters, 2013)",
  "key": {"NTR1 [1]": {"biological_target": "T1, NTR1 (Homo sapiens, UniProt P30989)", "T1 sequence (P30989 whole entry)": "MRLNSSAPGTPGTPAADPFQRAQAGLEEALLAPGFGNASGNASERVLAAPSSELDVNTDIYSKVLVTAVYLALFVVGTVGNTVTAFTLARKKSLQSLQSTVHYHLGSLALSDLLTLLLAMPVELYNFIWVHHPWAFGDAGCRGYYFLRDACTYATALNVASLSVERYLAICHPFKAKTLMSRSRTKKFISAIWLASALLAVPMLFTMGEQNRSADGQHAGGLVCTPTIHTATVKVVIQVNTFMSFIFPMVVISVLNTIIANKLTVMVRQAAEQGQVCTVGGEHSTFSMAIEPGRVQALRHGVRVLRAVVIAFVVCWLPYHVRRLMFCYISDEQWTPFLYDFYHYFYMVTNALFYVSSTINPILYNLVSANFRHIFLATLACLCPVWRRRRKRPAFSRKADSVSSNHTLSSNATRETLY", "test": "NTR1 Ca2+ Flux assay", "assay_type": "cell-based"}, "NTR1 [2]": {"biological_target": "T1, NTR1", "test": "NTR1 HCS primary assay", "assay_type": "cell-based", "conditions": "for loss in potency compared to 32: NTR1 HCS EC50 relative to compound 32"}, "[3]": {"test_system": "adrenergic receptors (α1a, α1B, α1D, α2A)", "test": "Panlabs/Ricerca lead profiling panel", "assay_type": "binding", "conditions": "at 10 μM, range across α1a"}, "[4]": {"test_system": "GPR55, APJ, k-opiod, CCR6, and CXCR6", "test": "Functional high content or β-arrestin based GPCR screens", "assay_type": "cell-based", "conditions": "result in words"}, "[5]": {"test_system": "Fa2N-4 Immortalized Human Hepatocytes", "test": "Toxicity towards hepatocytes", "assay_type": "cell-based", "conditions": "LC50 towards human hepatocytes versus NTR1 potency"}, "[6]": {"conditions": "NTR1 HCS EC50 relative to compound 5"}},
  "note": "pEC50: −log10 of the molar value. Entries after “also recorded” stand apart in the source; their conditions may differ.",
  "data": [
    {"smiles": "COc1cccc(OC)c1-c1cc(C(=O)N[C@@H](CC(C)C)C(=O)O)nn1-c1ccnc2cc(Cl)ccc12", "note": "[Compound 2, reference compound]", "values": [
      {"measurement": "pEC50", "setting": "NTR1 [1]; NTR1 Ca2+ flux assay", "value": "> 6.81"}
    ]},
    {"smiles": "COc1cc2nc(C3CCC3)nc(N3CCN(c4ccccn4)CC3)c2cc1OC", "note": "[Compound 18]", "values": [
      {"measurement": "loss of potency compared to 5", "setting": "NTR1 [2]; [6]", "value": "> 6", "unit": "fold"}
    ]},
    {"smiles": "CCOc1cc2c(N3CCN(c4ccccc4[N+](=O)[O-])CC3)nc(-c3ccccc3)nc2cc1OC", "note": "[Compound 19]", "values": [
      {"measurement": "loss of potency compared to 5", "setting": "NTR1 [2]; [6]", "value": "> 6", "unit": "fold"}
    ]},
    {"smiles": "COc1cc2nc(C3CC3)nc(N3CCN(c4ccccc4OC)CC3)c2cc1OC", "note": "[Compound 32, 2-cyclopropyl-6,7-dimethoxy-4-(4-(2-methoxyphenyl)-piperazin-1-yl)quinazoline]", "values": [
      {"measurement": "improvement in activity over 5", "setting": "NTR1 [2]; [6]", "value": 3, "unit": "fold"},
      {"measurement": "response in Ca2+ mobilization / flux assay", "setting": "NTR1 [1]; result in words", "value": "no significant response; also recorded: no significant activity"},
      {"measurement": "binding", "setting": "[3]", "value": "63-100%"},
      {"measurement": "cross reactivity", "setting": "[4]", "value": "no cross reactivity"},
      {"measurement": "window for toxicity", "setting": "[5]", "value": "> 15", "unit": "fold"}
    ]},
    {"smiles": "COc1ccc2c(N3CCN(c4ccccc4OC)CC3)nc(C3CCC3)nc2c1", "note": "[Compound 38]", "values": [
      {"measurement": "loss of potency compared to 5", "setting": "NTR1 [2]; [6]", "value": "4-6 fold"}
    ]},
    {"smiles": "COc1ccccc1N1CCN(c2nc(C3CCC3)nc3ccccc23)CC1", "note": "[Compound 39]", "values": [
      {"measurement": "loss of potency compared to 5", "setting": "NTR1 [2]; [6]", "value": "4-6 fold"}
    ]},
    {"smiles": "COc1ccccc1N1CCN(c2nc(C3CCC3)nc3cc4c(cc23)OCO4)CC1", "note": "[Compound 40]", "values": [
      {"measurement": "loss of potency compared to 5", "setting": "NTR1 [2]; [6]", "value": "over 6 fold"}
    ]},
    {"smiles": "CCOc1ccccc1N1CCN(c2nc(C3CC3)nc3cc(OC)c(OC)cc23)CC1", "note": "[Compound 42]", "values": [
      {"measurement": "loss in potency compared to 32", "setting": "NTR1 [2]", "value": "3-10 fold"}
    ]},
    {"smiles": "COc1cc2nc(C3CC3)nc(N3CCN(c4ccccc4Cl)CC3)c2cc1OC", "note": "[Compound 43]", "values": [
      {"measurement": "loss in potency compared to 32", "setting": "NTR1 [2]", "value": "3-10 fold"}
    ]}
  ]
}
